From publication PMC10813753 (Biology, 2024)
Where a name gives a salt, the structure may show the parent alone. Read-outs that look alike come from different tables or passages of the source.

Assays:
[1] = tested on: ds17 (DNA, duplex) GGGTTACTACGAACTGG/CCAGTTCGTAGTAACCC; experiment: equilibrium dialysis (non-competition); conditions: 100 mM KCl, 10 mM potassium phosphate pH 7.2, 22 °C, 2 μM ligand, 75 μM base pairs, apparent, per base pair
[2] = tested on: Tel22 (DNA, G4) AGGGTTAGGGTTAGGGTTAGGG; experiment: equilibrium dialysis (non-competition); conditions: 100 mM KCl; 10 mM potassium phosphate pH 7.2, 22 °C; 2 μM ligand, 75 μM tetrads; apparent; per tetrad; per base
[3] = tested on: F21T (DNA, G4) GGGTTAGGGTTAGGGTTAGGG; experiment: FRET melting (renaturing curve); conditions: 10 mM K+, 90 mM Li+; 10 mM Li-cacodylate pH 7.3; 0.2 μM DNA; 10 μM compound
[4] = tested on: F10T (DNA, hairpin, Sp18 (hexaethylene glycol type spacer) between 10 and 11) TATAGCTATATAGCTATA; experiment: FRET melting (renaturing curve); conditions: 100 mM LiCl; 10 mM Li-cacodylate; 0.2 μM DNA; 10 μM compound
[5] = tested on: Tel22 (DNA, G4) AGGGTTAGGGTTAGGGTTAGGG; experiment: circular dichroism titration; conditions: 10 mM K+, 90 mM Li+; 10 mM Li-cacodylate pH 7.3, 25 °C; 4 μM DNA, DNA/ligand 1:1 to 1:5
HeLa cells (cervix) = experiment: MTT viability assay HeLa; type: cell-based, human; conditions: 72 h
Experimental: (§1) A panel of five tumor cell lines and two normal cell lines was used to preliminarily test the cytotoxicity of compounds 1–4, and the experiments were conducted as previously reported. All human cell lines were acquired from American Type Culture Collection (ATCC): tumor PC-3 and DU145 (prostate), HeLa (cervix), MCF7 (breast) and HT29 (colorectal) and healthy HFF-1 (fibroblast) and RWPE-1 (prostate). The cell catalogue reference and culture media used in the experiments were CRL-1435^TM, RPMI (PC-3), HTB-81™, RPMI (DU145), CCL-2^TM, DMEM (HeLa), HTB-22^TM, DMEM (MCF-7), HTB-38^TM, modified McCoy’s 5a medium, Catalogue No. 30-2007 (HT29), SCRC-1041^TM, DMEM (HFF-1) and CRL-11609^TM, Keratinocyte-SFM (RWPE-1). Culture media were purchased from Merck: RPMI-1640, DMEM + 10% FBS (Fetal Bovine Serum) + […] (penicillin/streptomycin/amphotericin B). Media and supplements for RWPE-1 were from ThermoFisher (17005075, Madrid, Spain). MCF7 cells were additionally supplemented with insulin (0.001 mg/mL in 500 mL media). Cells were kept at 37 °C (5% CO2), and culture media were renewed three times per week. When the cells reached 80–100% confluence, they were trypsinized and centrifuged, and the concentration was adjusted to each experiment. Cells were seeded at a density of ~10,000 cells/well into 24-well plates. The cells were treated with ligands 1–4 or the cytotoxic agents PhenQE8, PhenDC3 or cisplatin at different concentrations (10 nM–100 μM). Compound solutions were freshly prepared using the appropriate culture medium. Triplicate experiments were run. For MTT viability assays, after 72 h incubation, 50 μL of MTT (5 mg/mL) was added, and an additional incubation of 4 h was allowed. The medium in each well was then replaced by DMSO, and the absorbance was measured at 570 nm using an ELISA plate reader. Absorbances were normalized using negative controls (untreated cells, in triplicate, with a maximum of 0.9% DMSO content). Dose–response curves were obtained by plotting the percentage of viable cells versus logarithmic compound concentration. IC50 values were determined using Kaleidagragh^TM (3.52) software by adjusting the data to Equation 1/(1 + 10^(m2*(log(m1) − x))); m1 = 0.000003; m2 = 1.

[6] = tested on: HFF-1 cells (healthy fibroblasts); experiment: MTT viability assay HFF-1; type: cell-based, human
Experimental: as §1

[7] = tested on: PC-3 cells (prostate tumor); experiment: MTT viability assay PC-3; type: cell-based, human; conditions: MTT, 72 h
Experimental: as §1

[8] = tested on: RWPE-1 cells (healthy prostate); experiment: MTT viability assay RWPE-1; type: cell-based, human
Experimental: as §1

[9] = tested on: DU145 cells (prostate tumor); experiment: MTT viability assay DU145; type: cell-based, human
Experimental: as §1

MCF-7 cells (breast) = experiment: MTT viability assay MCF-7; type: cell-based, human
Experimental: as §1

[10] = tested on: G4 Tel22 telomeric quadruplex DNA; design: method as in PMID 33451070; conditions: previously reported ref 29; cited from earlier work
Calf thymus CT DNA = conditions: cited from earlier work
HT29 cells (colorectal) = experiment: MTT viability assay HT29; type: cell-based, human
Experimental: as §1, with “Dose–response curves were obtained by plotting the percentage of viable cells versus logarithmic compound concentration.” left out

[11] = tested on: telomeric G4 sequence F21T; experiment: FRET-based DNA melting assay, telomeric G4 F21T; type: binding, human; conditions: 10 μM compound, 0.2 μM F21T, renaturing process, K+ buffer
Experimental: FRET DNA melting assays were conducted following standard reported procedures. Briefly, the employed oligonucleotides F21T (5′-FAM—(GGG TTA)3GGG—TAMRA-3′) and F10T (5′-FAM—TAT AGC TA TA/Sp18/TA GCT ATA—TAMRA-3′) were dissolved in buffer at 0.25 μM concentration and annealed by heating at 90 °C for 5 min, and then immediately cooling to 0 °C, in the case of F21T, or slowly to rt (F10T) during a period of 3 hours. The solutions were allowed to stand at 4 °C at least overnight.
Tested compounds 1–4 were dissolved in water with up to a maximum 10% DMSO (50 μM stock solution). Each stock solution was then gradually diluted to reach the final concentrations in the assay from 0 to 10 μM and a fixed 0.2 μM concentration of target sequences F21T or F10T. The buffer used for G4 sequence F21T was 10 mM KCl, 90 mM LiCl and 10 mM Li-cacodylate, pH 7.3. The buffer employed for F10T was 100 mM LiCl and 10 mM Li-cacodylate.
The melting process program consisted of an incubation step at 24 °C for 5 min and then a temperature ramp (1 °C/min rate) with fluorescence recordings at every degree up to 95 °C. Subsequently, the microplate with the samples (50 μL) was incubated for 5 min at 96 °C and then gradually cooled by using a temperature ramp of −1 °C/min, with fluorescence measurements at every degree down to 25 °C. The melting and refolding (or renaturing) curves were registered based on the change in emission of the FAM (6-carboxyfluorescein) fluorophore, excited at 492 nm and emitting at 516 nm. Melting temperature values (Tm) were determined from replicate experiments using normalized curves and considering mid-transition T1/2 temperatures.

[12] = tested on: PC-3, DU145, HeLa, MCF-7, HT29, HFF-1 and RWPE-1 cells; experiment: MTT viability assay, whole cell panel; type: cell-based, human; conditions: 72 h, up to 100 μM
Experimental: A panel of five tumor cell lines and two normal cell lines was used to preliminarily test the cytotoxicity of compounds 1–4, and the experiments were conducted as previously reported. All human cell lines were acquired from American Type Culture Collection (ATCC): tumor PC-3 and DU145 (prostate), HeLa (cervix), MCF7 (breast) and HT29 (colorectal) and healthy HFF-1 (fibroblast) and RWPE-1 (prostate). The cell catalogue reference and culture media used in the experiments were CRL-1435^TM, RPMI (PC-3), HTB-81™, RPMI (DU145), CCL-2^TM, DMEM (HeLa), HTB-22^TM, DMEM (MCF-7), HTB-38^TM, modified McCoy’s 5a medium, Catalogue No. 30-2007 (HT29), SCRC-1041^TM, DMEM (HFF-1) and CRL-11609^TM, Keratinocyte-SFM (RWPE-1). Culture media were purchased from Merck: RPMI-1640, DMEM + 10% FBS (Fetal Bovine Serum) + […] (penicillin/streptomycin/amphotericin B). Media and supplements for RWPE-1 were from ThermoFisher (17005075, Madrid, Spain). […] The medium in each well was then replaced by DMSO, and the absorbance was measured at 570 nm using an ELISA plate reader. Absorbances were normalized using negative controls (untreated cells, in triplicate, with a maximum of 0.9% DMSO content). […] IC50 values were determined using Kaleidagragh^TM (3.52) software by adjusting the data to Equation 1/(1 + 10^(m2*(log(m1) − x))); m1 = 0.000003; m2 = 1.

In the case of `NC(=S)N/N=C/c1ccc2ccc3ccc(/C=N/NC(N)=S)nc3c2n1` (as salt: phosphate) [compound 2, 2,2′-(1,10-Phenanthroline-2,9-diyl)-bis(methylene)-bis(hydrazine-1-carbothioamide) Hexafluorophosphate Salt], the melting point is reported as > 240 °C (dec.).

In the case of `NC(=S)N/N=C/c1ccc2ccc3ccc(/C=N/NC(N)=S)nc3c2n1` [1], the Kapp [1] is reported as 0.06 ± 0.01 × 10^5 M^-1, the Kapp [2] is reported as 1.1 ± 0.1 × 10^5 M^-1 and the ΔTm [3] is reported as ~ 12 °C. The ΔTm [4] was ~ 0 °C and the binding [5] was “yes”.

For `NC(=S)N/N=C/c1ccc2ccc3ccc(/C=N/NC(N)=S)nc3c2n1` [2], the ΔTm [3] was ~ 15 °C.

With `NC(=S)N/N=C/c1ccc2ccc3ccc(/C=N/NC(N)=S)nc3c2n1` [3] the ΔTm [3] was ~ 10 °C.

With `C[n+]1cc(NC(=O)c2ccc3ccc4ccc(C(=O)Nc5cc6ccccc6[n+](C)c5)nc4c3n2)cc2ccccc21` [PhenDC3] the IC50 (HeLa cells (cervix); Homo sapiens, HeLa) was over 100 µM, the IC50 ([6]; Homo sapiens, HFF-1, 72 h) was 32.2 ± 4.2 µM and the IC50 ([7]; Homo sapiens, PC-3, 72 h) was 55.5 ± 3.1 µM. The IC50 ([8]; Homo sapiens, RWPE-1, 72 h) was 8.2 ± 1.1 µM, the IC50 ([9]; Homo sapiens, DU-145, 72 h) was 7.3 ± 1 µM and the IC50 (MCF-7 cells (breast); Homo sapiens, MCF7, 72 h) was 2.4 ± 0.8 µM.

In the case of `N=C(N)N/N=C/c1ccc2ccc3ccc(/C=N/NC(=N)N)nc3c2n1` [PhenQE8], the IC50 (HeLa cells (cervix); Homo sapiens, HeLa) is given as 16.2 ± 1.6 µM, the IC50 ([6]; Homo sapiens, HFF-1, 72 h) is given as 170 ± 23.3 µM and the “binding selectivity quadruplex/dsDNA” value [10] is given as 90 fold. It also gave an IC50 ([7]; Homo sapiens, PC-3, 72 h) of 5.6 ± 0.3 µM, an IC50 ([8]; Homo sapiens, RWPE-1, 72 h) of 38.8 ± 0.5 µM and an IC50 ([9]; Homo sapiens, DU-145, 72 h) of 22.7 ± 1.1 µM. For the same molecule, the IC50 (MCF-7 cells (breast); Homo sapiens, MCF7, 72 h) was 44.9 ± 9.2 µM and the “viscosity slope, (η/ηo)^1/3 versus r” value (Calf thymus CT DNA; determined in previous studies ref 29) was “ca. 0.24”.

Work on `N.N.[Cl][Pt][Cl]` [cisplatin] yielded an IC50 (HeLa cells (cervix)) of 18 ± 1.9 µM, an IC50 ([6]; 72 h) of 36.6 ± 4.4 µM and an IC50 (HT29 cells (colorectal); 72 h) of 86.6 ± 7 µM. For the same molecule, the IC50 [7] was 12.8 ± 0.9 µM, the IC50 ([8]; 72 h) was 16.4 ± 1.4 µM and the IC50 ([9]; 72 h) was 8.4 ± 1.5 µM. The IC50 (MCF-7 cells (breast); 72 h) was 96.5 ± 6.7 µM.

`C(=N\Nc1nc(-c2ccccc2)cs1)/c1ccc2ccc3ccc(/C=N/Nc4nc(-c5ccccc5)cs4)nc3c2n1` [compound 4, 2,9-bis((E)-(2-(4-Phenylthiazol-2-yl)hydrazineylidene)methyl)-1,10-phenanthroline] gave an IC50 (HeLa cells (cervix); Homo sapiens, HeLa) of over 100 µM, an IC50 ([6]; Homo sapiens, HFF-1, 72 h) of over 100 µM and an IC50 (HT29 cells (colorectal); Homo sapiens, HT-29, 72 h) of over 100 µM. The IC50 ([7]; Homo sapiens, PC-3, 72 h) was over 100 µM, the IC50 ([8]; Homo sapiens, RWPE-1, 72 h) was over 100 µM and the “ΔTm of telomeric G4 F21T” value [11] was ~ 3 °C. For the same molecule, the ΔTm [3] was ~ 3 °C, the ΔTm [4] was ~ 0 °C and the IC50 ([9]; Homo sapiens, DU-145, 72 h) was over 100 µM. For the same molecule, the IC50 (MCF-7 cells (breast); Homo sapiens, MCF7, 72 h) was over 100 µM, the “cytotoxicity in all cell lines tested” value [12] was “non-cytotoxic” and the melting point was > 250 °C (dec.).

For `CC[n+]1c(-c2ccccc2)c2cc(N)ccc2c2ccc(N)cc21` [ethidium bromide], the “viscosity slope, (η/ηo)^1/3 versus r” value (Calf thymus CT DNA; classical monointercalating agent ref 50, 51) is given as ~ 1.0.
